# Test system: Saccharomyces cerevisiae wild type strain BY4743
# Experiment: AF1 yeast metabolite analysis by GC-MS and LC-MS
# Format: cell-based
# Conditions: for Fold Change, NacetylLglutamate: detected metabolite NacetylLglutamate; for Fold Change, NacetylLornithine: detected metabolite NacetylLornithine; for Fold Change, nicotinic acid: detected metabolite nicotinic acid; for Fold Change, nopaline: detected metabolite nopaline; for Fold Change, oleic acid: detected metabolite oleic acid; for Fold Change, ornithine: detected metabolite ornithine; for Fold Change, phenylalanine: detected metabolite phenylalanine; for Fold Change, phosphoenolpyruvate: detected metabolite phosphoenolpyruvate; for Fold Change, pipecolic acid: detected metabolite pipecolic acid; for Fold Change, proline: detected metabolite proline; for Fold Change, pyridoxine: detected metabolite pyridoxine; for Fold Change, selenoDLmethionine: detected metabolite selenoDLmethionine; for Fold Change, serine: detected metabolite serine; for Fold Change, sugar-phosphate: detected metabolite sugar-phosphate; for Fold Change, tetradecanoic acid: detected metabolite tetradecanoic acid; for Fold Change, threonine/homoserin: detected metabolite threonine/homoserin; for Fold Change, thymine: detected metabolite thymine; for Fold Change, tryptophan: detected metabolite tryptophan; for Fold Change, tyrosine: detected metabolite tyrosine; for Fold Change, urocanic acid: detected metabolite urocanic acid; for Fold Change, valine: detected metabolite valine; for Fold Change, zeatin: detected metabolite zeatin
compound,measurement,setting,value
CC[C@@H]([C@H](C)O)n1ncn(-c2ccc(N3CCN(c4ccc(OC[C@@H]5CO[C@@](Cn6cncn6)(c6ccc(F)cc6F)C5)cc4)CC3)cc2)c1=O [Posaconazole],Fold Change of alanine,GC,1.035
same,Fold Change of asparagine,GC,0.145
same,Fold Change of aspartic acid,GC,−0.071
same,Fold Change of campesterol,GC,0
same,Fold Change of desmosterol,GC,0
same,Fold Change of disaccaride1,GC,0.04733
same,Fold Change of disaccaride2,GC,0.313
same,Fold Change of disaccaride3,GC,0.3407
same,Fold Change of ergosterol,GC,0.808
same,Fold Change of fucosterol,GC,6.722
same,Fold Change of glutamine,GC,0.6439
same,Fold Change of glycanopyrose,GC,1.594
same,Fold Change of glycerol,GC,0.1873
same,Fold Change of glycine,GC,0.08267
same,Fold Change of hexadecanoic acid,GC,−0.01867
same,Fold Change of iso citric acid,GC,0.4
same,Fold Change of isoleucine,GC,0.1023
same,Fold Change of lanosterol,GC,7.464
same,Fold Change of leucine,GC,0.334
same,Fold Change of lysine,GC,0.1586
same,Fold Change of malic acid,GC,0.2942
same,Fold Change of biotin,LC,0
same,Fold Change of folic acid,LC,0
same,"Fold Change, NacetylDglucosamine","detected metabolite NacetylDglucosamine, platform nLC",0
same,"Fold Change, NacetylLglucosamine","detected metabolite NacetylLglucosamine, platform pLC",0
same,"Fold Change, NacetylLglutamate",platform nLC,−0.07165
same,"Fold Change, NacetylLglutamate",platform pLC,0
same,"Fold Change, NacetylLornithine",platform nLC,0
same,"Fold Change, NacetylLornithine",platform pLC,0.1338
same,"Fold Change, TMS mevalonic acid lactone","detected metabolite TMS mevalonic acid lactone, platform GC",−0.3118
same,"Fold Change, mevalonic acid lactone","detected metabolite mevalonic acid lactone, platform GC",0.5555
same,"Fold Change, mevalonic lactone","detected metabolite mevalonic lactone, platform pLC",−0.08368
same,"Fold Change, niacinamide","detected metabolite niacinamide, platform pLC",0
same,"Fold Change, nicotinic acid",platform nLC,1.421
same,"Fold Change, nicotinic acid",platform pLC,−0.8142
same,"Fold Change, nopaline",platform nLC,0.7554
same,"Fold Change, nopaline",platform pLC,0
same,"Fold Change, octadecanoic acid","detected metabolite octadecanoic acid, platform GC",0.321
same,"Fold Change, oleic acid",platform GC,−0.5057
same,"Fold Change, oleic acid",platform nLC,0.5606
same,"Fold Change, ornithine2","detected metabolite ornithine2, platform GC",−0.1383
same,"Fold Change, ornithine3","detected metabolite ornithine3, platform GC",0.041
same,"Fold Change, ornithine",platform nLC,2.314
same,"Fold Change, ornithine",platform pLC,0.4314
same,"Fold Change, orotic acid","detected metabolite orotic acid, platform nLC",0
same,"Fold Change, palmiteliadic acid","detected metabolite palmiteliadic acid, platform GC",−0.2453
same,"Fold Change, palmitic acid","detected metabolite palmitic acid, platform nLC",0.1518
same,"Fold Change, phenylalanine",platform GC,0.06069
same,"Fold Change, phenylalanine",platform nLC,−0.03702
same,"Fold Change, phenylalanine",platform pLC,−0.1585
same,"Fold Change, phenylpyruvic acid","detected metabolite phenylpyruvic acid, platform nLC",0
same,"Fold Change, phosphate","detected metabolite phosphate, platform GC",−0.1833
same,"Fold Change, phosphoenolpyruvate",platform LC,0
same,"Fold Change, phosphoenolpyruvate",platform nLC,0
same,"Fold Change, pinitol","detected metabolite pinitol, platform nLC",0
same,"Fold Change, pipecolic acid",platform nLC,0.1806
same,"Fold Change, pipecolic acid",platform pLC,0.3444
same,"Fold Change, progesterone","detected metabolite progesterone, platform pLC",0
same,"Fold Change, proline",platform LC,0.3157
same,"Fold Change, proline",platform nLC,0.3147
same,"Fold Change, pyridoxine",platform nLC,−0.1015
same,"Fold Change, pyridoxine",platform pLC,−0.239
same,"Fold Change, pyrimidine","detected metabolite pyrimidine, platform GC",0.159
same,"Fold Change, retinoic acid","detected metabolite retinoic acid, platform nLC",0
same,"Fold Change, riboflavin","detected metabolite riboflavin, platform pLC",0
same,"Fold Change, salicylic/HObenzoic","detected metabolite salicylic/HObenzoic, platform nLC",0
same,"Fold Change, selenoDLmethionine",platform nLC,−0.6722
same,"Fold Change, selenoDLmethionine",platform pLC,−0.7083
same,"Fold Change, serine",platform nLC,0.152
same,"Fold Change, serine",platform pLC,0.2417
same,"Fold Change, shikimic acid","detected metabolite shikimic acid, platform nLC",0
same,"Fold Change, sinapinic acid","detected metabolite sinapinic acid, platform nLC",0
same,"Fold Change, sorbitol/mannitol","detected metabolite sorbitol/mannitol, platform nLC",0.009121
same,"Fold Change, squalene","detected metabolite squalene, platform GC",0.07431
same,"Fold Change, succinic","detected metabolite succinic, platform nLC",−0.06141
same,"Fold Change, sucrose","detected metabolite sucrose, platform nLC",0.1847
same,"Fold Change, sugar-phosphate",platform nLC,−0.04543
same,"Fold Change, sugar-phosphate",platform pLC,0
same,Fold Change,"detected metabolite sugar?, platform GC",0.6923
same,"Fold Change, tetradecanoic acid",platform GC,−0.214
same,"Fold Change, tetradecanoic acid",platform nLC,1.029
same,"Fold Change, thiamine","detected metabolite thiamine, platform pLC",0
same,"Fold Change, threonine2","detected metabolite threonine2, platform GC",0.457
same,"Fold Change, threonine3","detected metabolite threonine3, platform GC",0.225
same,"Fold Change, threonine/homoserin",platform nLC,0.04034
same,"Fold Change, threonine/homoserin",platform pLC,0.1437
same,"Fold Change, thymine",platform nLC,0
same,"Fold Change, thymine",platform pLC,0
same,"Fold Change, tms glutamine3","detected metabolite tms glutamine3, platform GC",0.6709
same,"Fold Change, tms lysine4","detected metabolite tms lysine4, platform GC",0.05667
same,"Fold Change, tms tyrosine2","detected metabolite tms tyrosine2, platform GC",1.228
same,"Fold Change, tms tyrosine3","detected metabolite tms tyrosine3, platform GC",0.1911
same,"Fold Change, tryptophan",platform nLC,4.676
same,"Fold Change, tryptophan",platform pLC,0
same,"Fold Change, tyrosine",platform nLC,0.0282
same,"Fold Change, tyrosine",platform pLC,0.1008
same,"Fold Change, uracil","detected metabolite uracil, platform nLC",−0.2779
same,"Fold Change, uric acid","detected metabolite uric acid, platform pLC",0
same,"Fold Change, uridine","detected metabolite uridine, platform nLC",0.02855
same,"Fold Change, urocanic acid",platform nLC,0
same,"Fold Change, urocanic acid",platform pLC,0
same,"Fold Change, valine",platform GC,0.345
same,"Fold Change, valine",platform nLC,0.0195
same,"Fold Change, xanthosine(diH2O)","detected metabolite xanthosine(diH2O), platform pLC",0
same,"Fold Change, xanthosineDiH2O","detected metabolite xanthosineDiH2O, platform nLC",0
same,"Fold Change, zeatin",platform nLC,0
same,"Fold Change, zeatin",platform pLC,0
same,Fold Change of 2-ketobutyric acid,nLC,−0.9992
same,Fold Change of 2-ketoglutaric,nLC,11.33
same,Fold Change of 3-indolylacetonitri,nLC,−0.9998
same,Fold Change of 4-methylcatechol,nLC,0
same,Fold Change of 4aminobutyrate/dimg,nLC,−0.008939
same,Fold Change of 5hydroxyLtryptophan,nLC,0
same,Fold Change of 6-benzylaminopurine,nLC,0
same,Fold Change of DLaminoadipic acid,nLC,−0.9935
same,Fold Change of abscisic acid,nLC,0
same,Fold Change of aconitic acid,nLC,1.874
same,Fold Change of adenine,nLC,0
same,Fold Change of adenosine,nLC,128.3
same,Fold Change of alanine,nLC,0.1091
same,Fold Change of allantoic acid,nLC,0.3321
same,Fold Change of allantoin,nLC,5.97
same,Fold Change of anthranilic acid,nLC,0
same,Fold Change of arginine,nLC,0.1707
same,Fold Change of argininosuccinate,nLC,318.3
same,Fold Change of asparagine,nLC,0.006865
same,Fold Change of aspartic,nLC,0.305
same,Fold Change of benzoic acid,nLC,0
same,Fold Change of biotin,nLC,−0.9992
same,Fold Change of caffeic acid,nLC,−0.49
same,Fold Change of catechol,nLC,0
same,Fold Change of cinnamic acid,nLC,0
same,Fold Change of citricanoic/itaconi,nLC,0
same,Fold Change of citrulline,nLC,1160
same,Fold Change of coumaric acid,nLC,0
same,Fold Change of cytidine,nLC,−0.9986
same,Fold Change of cytosine,nLC,0
same,Fold Change of decanoic acid,nLC,0.1263
same,Fold Change of diaminopimelic acid,nLC,0
same,Fold Change of dihydrofolic acid,nLC,0
same,Fold Change of estrone,nLC,0
same,Fold Change of farnesol,nLC,0
same,Fold Change of folic acid,nLC,0
same,Fold Change of fumaric/3m2oxobutan,nLC,−0.9997
same,Fold Change of gallic acid,nLC,0.4414
same,Fold Change of gibberellic,nLC,0
same,Fold Change of glucosamine6PO4,nLC,−0.9951
same,Fold Change of glutamic/acetylseri,nLC,0.3222
same,Fold Change of glutamine/lysine,nLC,0.09814
same,Fold Change of guanine,nLC,0
same,Fold Change of guanosine,nLC,−0.993
same,Fold Change of histidine,nLC,0
same,Fold Change of homogentisic/uric,nLC,0
same,Fold Change of hydrocortisone,nLC,0
same,Fold Change of hypoxanthine,nLC,0.1751
same,Fold Change of indole3pyruvic acid,nLC,0
same,Fold Change of inostol/glucos/sorb,nLC,−0.493
same,Fold Change of isocitric/citric/qu,nLC,1.711
same,Fold Change of jasmonic acid,nLC,0
same,Fold Change of kinetin,nLC,0
same,Fold Change of lactic acid,nLC,0.5987
same,Fold Change of lauric acid,nLC,0.9833
same,Fold Change of leucine/isoleucine/,nLC,0.03158
same,Fold Change of luteolin,nLC,0
same,Fold Change of malic acid,nLC,0.3101
same,Fold Change of malonic acid,nLC,0
same,Fold Change of menthol*,nLC,0.08121
same,Fold Change of methionine,nLC,0
same,Fold Change of 4-aminobenzoic acid,pLC,0
same,Fold Change of 4-methylcatechol,pLC,0
same,Fold Change of 4ambutyrate/dimglyc,pLC,31.37
same,Fold Change of 5hydroxyLtryptophan,pLC,0
same,Fold Change of 6benzylaminopurine,pLC,0
same,Fold Change of DL-aminoadipic acid,pLC,1.685
same,Fold Change of abscisic acid,pLC,0
same,Fold Change of adenine,pLC,−0.0145
same,Fold Change of adenosine,pLC,0
same,Fold Change of alanine/sarcosine,pLC,0.1013
same,Fold Change of allantoic acid,pLC,0
same,Fold Change of anthranilic acid,pLC,0
same,Fold Change of arginine,pLC,0.03383
same,Fold Change of argininosuccinate,pLC,0
same,Fold Change of asparagine,pLC,0.4302
same,Fold Change of aspartic acid,pLC,0.3626
same,Fold Change of caffeine,pLC,0
same,Fold Change of citric acid TME,pLC,0
same,Fold Change of citrulline,pLC,0.1011
same,Fold Change of cytidine,pLC,0
same,Fold Change of cytosine,pLC,1135
same,Fold Change of diaminopimelic acid,pLC,0
same,Fold Change of dihydrofolic acid,pLC,0
same,Fold Change of dipicolinic acid,pLC,0
same,Fold Change of glucosamine,pLC,0
same,Fold Change of glucosamine6PO4,pLC,0
same,Fold Change of glutamate,pLC,0.3769
same,Fold Change of glutamine/lysine,pLC,0.303
same,Fold Change of glutathione,pLC,0.0101
same,Fold Change of guanosine,pLC,0.04655
same,Fold Change of histidine,pLC,0
same,Fold Change of hydrocortisone,pLC,0
same,Fold Change of hypoxanthine,pLC,0.135
same,Fold Change of itaconic acid dimes,pLC,0
same,Fold Change of kinetin,pLC,0
same,Fold Change of leucine/isoleucine/,pLC,0.04937
same,Fold Change of mannitol,pLC,0.3919
same,Fold Change of methionine,pLC,−0.3997

# Reference: patent US20040018501A1, “Methods and systems for analyzing complex biological systems” (priority 2001, published 2004)
